Assay results: paper PMC6628648, “Enabling microbial syringol conversion through structure-guided protein engineering” (Proceedings of the National Academy of Sciences of the …, 2019)

Columns and labels:
Test in all cases: In vivo syringol conversion in shake flasks, 1H NMR of culture medium
Assay type in all cases: cell-based
[1] = tested on: Pseudomonas putida KT2440 strain AM156 expressing WT GcoAB; conditions: 20 mM glucose, 1 mM syringol
Method: (§1) A standard for 2-pyrone 6-carboxylate was not available; however, we did verify the presence of 2-pyrone 6-carboxylate using LC-MS-MS (SI Appendix, Fig. S15). While small amounts of pyrogallol, 3MC, and 2-pyrone 6-carboxylate were also observed with the WT GcoAB (AM156), nearly 60% of the original syringol remained after 6 h.
(§2) Strains used for shake flask experiments were grown overnight in LB media and resuspended the next day in M9 minimal media with 20 mM glucose, as described in SI Appendix. Cells were grown until they reached an OD600 of approximately 1, at which point syringol was added at a final concentration of 1 mM. ^1H NMR spectroscopy was used to analyze syringol consumption.
(§3) 572 nm was recorded by a Varioskan Lux microplate reader (Thermo Scientific). The absorbance was compared to a standard curve with 0-100 μM H2O2 to quantify the amount of peroxide produced in the reactions.
(§4) Purified protein was buffer exchanged into 10 mM HEPES pH 7.5 and concentrated to an A280 value of 12, as measured on a NanoDrop 2000 spectrophotometer (Thermo Fisher). Crystals of GcoA were grown with 2.4 M sodium malonate and 200 mM substrate, dissolved in 40% DMSO where necessary. Crystals were cryocooled directly in liquid N2 without further addition of cryoprotectants. […]
(§5) Strains evaluated in shake flask experiments were initially grown overnight in LB media with appropriate antibiotics from glycerol stocks and resuspended the following day in M9 minimal media (6.78 g/L Na2HPO4, 3 g/L KH2PO4, 0.5 g/L NaCl, 1 g/L NH4Cl, 2 mM MgSO4, 100 µM CaCl2, and 40 µM FeSO4 . 7H2O) supplemented with 20 mM glucose (Sigma-Aldrich) and […] kanamycin.
(§6) Cells were grown until they reached an OD600 of 1, at which point syringol (Sigma-Aldrich) was added to a final concentration of 1 mM. Syringol concentrations were quantified using any 1H NMR, and spectra were collected using a Bruker Avance III HD 400 MHz Spectrometer and analyzed using Bruker TopSpin3.7 software. For identification of unknown compounds, samples were analyzed via LC-MS-MS using the Acquity UPLC system (Waters Inc.). […]

[2] = tested on: Pseudomonas putida KT2440 strain AM155 lacking GcoAB; conditions: AM155 (does not express GcoA), 1 mM syringol
Method: as §1, §2, §3, §4, §5, §6

[3] = tested on: Pseudomonas putida KT2440 strain AM157 expressing GcoA-F169A and GcoB; conditions: 20 mM glucose, 1 mM syringol
Method: as §1, §2, §3, §4, §5, §6

COc1cccc(OC)c1O [syringol, 2,6-dimethoxyphenol]
original syringol remaining after 6 h [1]: ~60% | syringol conversion after 6 h [2]: no conversion | syringol 1H NMR peaks in culture medium after 6 h [3]: completely disappeared
